Measurements as given in article PMC12883167 (Bioorganic & medicinal chemistry letters, 2019).
Several values for one entry are separate records, joined by “and”; a condition that tells them apart may be missing. Equal entries are not always repeated. Numbered stars: 1 amine (or outer) side, 2 acyl side, 3 side chain; on linkers, the order of the positions; unused ones are H or OH. Square brackets hold non-standard residues; d marks the D form. Peptide text beside a SMILES is read from it. * marks the point of attachment. cisHyp = O=C(O)[C@@H]1C[C@H](O)CN1; Hyp = O=C(O)[C@@H]1C[C@@H](O)CN1; Chg = N[C@H](C(=O)O)C1CCCCC1; Phg = N[C@H](C(=O)O)c1ccccc1; Tle = CC(C)(C)[C@H](N)C(=O)O; NMeV = CN[C@H](C(=O)O)C(C)C; αMeP = C[C@@]1(C(=O)O)CCCN1; Pip = O=C(O)[C@@H]1CCCCN1; Ac6c = NC1(C(=O)O)CCCCC1; Ac5c = NC1(C(=O)O)CCCC1; Cbz = O=C(OCc1ccccc1)*; CO = O=C([*:1])[*:2]; Bz = O=C(c1ccccc1)*; NHPh = c1ccc(N*)cc1; CH2F = FC*

Legend:
[1] = tested on: RelB cleavage (MALT1 protease activity) in OCI-Ly3 cells; test: Inhibition of RelB cleavage in OCI-Ly3 cells by Western blot; format: cell-based; conditions: at 20 μM
[2] = target: T1, MALT1 protease (Homo sapiens, UniProt Q9UDY8); format: cell-based; conditions: Cell (Glo), GloSensor reporter, PMA/IO activated Raji cells
T1 sequence (Q9UDY8 1-824): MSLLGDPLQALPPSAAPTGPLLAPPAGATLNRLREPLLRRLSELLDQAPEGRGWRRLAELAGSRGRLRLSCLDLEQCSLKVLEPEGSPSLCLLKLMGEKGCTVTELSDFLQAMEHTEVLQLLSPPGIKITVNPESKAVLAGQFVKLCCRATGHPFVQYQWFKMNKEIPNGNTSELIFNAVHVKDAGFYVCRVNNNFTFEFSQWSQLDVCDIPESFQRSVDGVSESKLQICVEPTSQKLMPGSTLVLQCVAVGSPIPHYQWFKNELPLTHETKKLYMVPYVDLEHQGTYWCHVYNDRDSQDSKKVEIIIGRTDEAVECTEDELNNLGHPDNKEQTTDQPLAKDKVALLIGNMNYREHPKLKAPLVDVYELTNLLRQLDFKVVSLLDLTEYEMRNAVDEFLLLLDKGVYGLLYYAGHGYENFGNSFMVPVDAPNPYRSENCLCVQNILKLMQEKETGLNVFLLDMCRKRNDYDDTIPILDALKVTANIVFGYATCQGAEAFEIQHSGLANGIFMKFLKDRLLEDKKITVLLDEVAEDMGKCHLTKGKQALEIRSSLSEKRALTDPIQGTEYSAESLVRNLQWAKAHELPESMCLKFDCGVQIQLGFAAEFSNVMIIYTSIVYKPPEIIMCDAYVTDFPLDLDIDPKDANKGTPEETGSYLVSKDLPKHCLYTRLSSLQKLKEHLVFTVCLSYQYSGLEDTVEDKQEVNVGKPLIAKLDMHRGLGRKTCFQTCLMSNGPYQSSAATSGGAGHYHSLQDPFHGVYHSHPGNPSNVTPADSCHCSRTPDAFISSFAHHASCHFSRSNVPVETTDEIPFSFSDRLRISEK

[3] = tested on: OCI-Ly3 cells; test: OCI-Ly3 cell proliferation assay
[4] = tested on: calpain; test: Protease selectivity profiling, calpain; format: biochemical; conditions: at 100 nM
[5] = target: cathepsin B (Homo sapiens, UniProt P07858); test: Protease selectivity profiling, cathepsin B; format: biochemical; conditions: at 100 nM
[6] = target: cathepsin S (Homo sapiens, UniProt P25774); test: Protease selectivity profiling, cathepsin S; format: biochemical; conditions: at 100 nM
cathepsin S, sequence (P25774 115-331, species assumed): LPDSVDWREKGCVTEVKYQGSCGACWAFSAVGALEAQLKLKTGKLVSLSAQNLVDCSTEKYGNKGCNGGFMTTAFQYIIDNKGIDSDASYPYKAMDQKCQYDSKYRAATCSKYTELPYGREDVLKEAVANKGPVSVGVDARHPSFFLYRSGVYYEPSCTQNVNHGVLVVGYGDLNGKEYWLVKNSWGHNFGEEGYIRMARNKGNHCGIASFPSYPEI

[7] = tested on: trypsin; test: Protease selectivity profiling, trypsin; format: biochemical; conditions: at 100 nM
[8] = Plasma levels upon IV and IP dosing in mice; format: in vivo
[9] = target: T2, MALT1 (Homo sapiens, UniProt Q9UDY8); conditions: PD studies ref 20; cited from earlier work
T2 sequence (Q9UDY8 1-824): T1 sequence (Q9UDY8 1-824)

[10] = tested on: ABC-DLBCL xenograft models; conditions: two ABC-DLBCL xenograft models ref 20; cited from earlier work
[11] = tested on: panel of 26 proteases, primarily caspases and cathepsins; test: Selectivity panel of 26 proteases; format: biochemical; conditions: profiling at lower concentrations
[12] = target: T2, MALT1; test: MALT1 biochemical assay; conditions: at 5 μM

SMILES	IC50 [2]	further results
CC(C)[C@H](NC(=O)OCc1ccccc1)C(=O)N[C@@H](CCCNC(=N)N)C(=O)N1CCC[C@H]1C(=O)N[C@@H](CCCNC(=N)N)C(=O)CF [Z-VRPR-fmk, reference compound]		inhibition of RelB cleavage [1]: partial inhibition
CC(C)[C@@H](C(=O)N1CCC[C@H]1C(=O)N[C@@H](CCCNC(=N)N)C(=O)CF)N(C)C(=O)OCc1ccccc1 [Compound 5] (Cbz-[NMeV]-Pro-Arg-CH2F)	3000 nM	
CN[C@H](C(=O)N1CCC[C@H]1C(=O)N[C@@H](CCCNC(=N)N)C(=O)CF)C(C)C [Compound 3] (H-[NMeV]-Pro-Arg-CH2F)	> 20000 nM	activity in the cell (proliferation) assay, in words [3]: inactive
CC(C)[C@H](NC(=O)c1ccc(C#N)cc1)C(=O)N1CCC[C@H]1C(=O)N[C@@H](CCCNC(=N)N)C(=O)CF [Compound 24]	710 nM	
CC(C)[C@H](NC(=O)c1ccccc1)C(=O)N1CCC[C@H]1C(=O)N[C@@H](CCCNC(=N)N)C(=O)CF [Compound 19] (Bz-Val-Pro-Arg-CH2F)	640 nM	
CC(C)C[C@H](NC(=O)OCc1ccccc1)C(=O)N1CCC[C@H]1C(=O)N[C@@H](CCCNC(=N)N)C(=O)CF [Compound 31] (Cbz-Leu-Pro-Arg-CH2F)	3420 nM	
COc1ccc(C(=O)N[C@H](C(=O)N2CCC[C@H]2C(=O)N[C@@H](CCCNC(=N)N)C(=O)CF)C(C)C)cc1 [Compound 26]	800 nM	
CC(C)c1ccc(C(=O)N[C@H](C(=O)N2CCC[C@H]2C(=O)N[C@@H](CCCNC(=N)N)C(=O)CF)C(C)C)cc1 [Compound 27]	70 nM	
CC(C)[C@H](NC(=O)Nc1ccc(Cl)cc1)C(=O)N1CCC[C@H]1C(=O)N[C@@H](CCCNC(=N)N)C(=O)CF [Compound 30]	110 nM	
CC(C)[C@H](NC(=O)c1ccc(Br)cc1)C(=O)N[C@@H](CO)C(=O)N[C@@H](CCCNC(=N)N)C(=O)CF [Compound 44]		activity against calpain [4]: active; activity against cathepsin B [5]: active; activity against cathepsin S [6]: active
CC(C)[C@H](NC(=O)c1ccc(Br)cc1)C(=O)N1CCC[C@H]1C(=O)N[C@@H](CCCNC(=N)N)C(=O)CF [Compound 22]	71 nM and 70 nM	potency against trypsin [7]: > 80%; plasma levels [8]: moderate plasma levels for several hours; in vivo inhibition of MALT1 activity [9]: in vivo inhibition of MALT1 activity; effects on tumor growth [10]: moderate effects on tumor growth
CC(C)[C@H](NC(=O)c1cccc(Br)c1)C(=O)N1CCC[C@H]1C(=O)N[C@@H](CCCNC(=N)N)C(=O)CF [Compound 21]	180 nM	
CC(C)[C@H](NC(=O)OCc1ccccc1)C(=O)N1CCC[C@H]1C(=O)N[C@@H](CCCNC(=N)N)C(=O)CF [Compound 4, Z-VPR-fmk] (Cbz-Val-Pro-Arg-CH2F)	1960 nM	
CC(C)[C@H](NC(=O)C1CCCCC1)C(=O)N1CCC[C@H]1C(=O)N[C@@H](CCCNC(=N)N)C(=O)CF [Compound 28]	640 nM	
CC(C)[C@H](NC(=O)c1ccccc1Br)C(=O)N1CCC[C@H]1C(=O)N[C@@H](CCCNC(=N)N)C(=O)CF [Compound 20]	1110 nM	
N=C(N)NCCC[C@H](NC(=O)[C@@H]1CCCN1C(=O)[C@@H](NC(=O)OCc1ccccc1)C1CCCCC1)C(=O)CF [Compound 34] (Cbz-[Chg]-Pro-Arg-CH2F)	150 nM	
CC[C@H](C)[C@H](NC(=O)OCc1ccccc1)C(=O)N1CCC[C@H]1C(=O)N[C@@H](CCCNC(=N)N)C(=O)CF [Compound 32] (Cbz-Ile-Pro-Arg-CH2F)	1860 nM	
CC(C)[C@H](NC(=O)c1ccc(Cl)cc1)C(=O)N1CCC[C@H]1C(=O)N[C@@H](CCCNC(=N)N)C(=O)CF [Compound 23]	180 nM	
CC(C)[C@H](NC(=O)c1ccc(C(F)(F)F)cc1)C(=O)N1CCC[C@H]1C(=O)N[C@@H](CCCNC(=N)N)C(=O)CF [Compound 25]	230 nM	
CC(C)[C@H](NC(=O)Nc1ccccc1)C(=O)N1CCC[C@H]1C(=O)N[C@@H](CCCNC(=N)N)C(=O)CF [Compound 29] ({NHPh-CO}-Val-Pro-Arg-CH2F)	170 nM	
N=C(N)NCCC[C@H](NC(=O)[C@@H]1CCCN1C(=O)[C@H](Cc1ccccc1)NC(=O)OCc1ccccc1)C(=O)CF [Compound 33]	2030 nM	
CCC(=O)[C@H](CCCNC(=N)N)NC(=O)[C@@H]1CCCN1C(=O)[C@@H](NC(=O)[C@H](CC(C)C)NC(=O)OCc1ccccc1)C(C)C [Compound 2]	> 20000 nM	activity in the biochemical assay [12]: no activity; inhibition of RelB cleavage [1]: no effects; activity in the cell (proliferation) assay, in words [3]: no activity

Now from value to compound, other results behind:

IC50 [2]	SMILES	further results
85 nM	CC(C)[C@H](NC(=O)c1ccc(Br)cc1)C(=O)N1C[C@H](O)C[C@H]1C(=O)N[C@@H](CCCNC(=N)N)C(=O)CF [Compound 45]	
710 nM	CC(C)(C)[C@H](NC(=O)OCc1ccccc1)C(=O)N1CCC[C@H]1C(=O)N[C@@H](CCCNC(=N)N)C(=O)CF [Compound 35] (Cbz-[Tle]-Pro-Arg-CH2F)	
149 nM	CC(C)[C@H](NC(=O)OCc1ccccc1)C(=O)N[C@@H](CO)C(=O)N[C@@H](CCCNC(=N)N)C(=O)CF [Compound 39]	
65 nM	N=C(N)NCCC[C@H](NC(=O)[C@@H]1C[C@@H](O)CN1C(=O)[C@@H](NC(=O)c1ccc(Br)cc1)C1CCCCC1)C(=O)CF [Compound 53]	
77 nM	CC(C)[C@H](NC(=O)c1ccc(Br)cc1)C(=O)N1COC[C@H]1C(=O)N[C@@H](CCCNC(=N)N)C(=O)CF [Compound 48]	
219 nM	CC(C)[C@H](NC(=O)c1ccc(Br)cc1)C(=O)N1CC[C@H]1C(=O)N[C@@H](CCCNC(=N)N)C(=O)CF [Compound 47]	
1430 nM	N=C(N)NCCC[C@H](NC(=O)[C@@H]1CCCN1C(=O)[C@@H](NC(=O)OCc1ccccc1)c1ccccc1)C(=O)CF [Compound 36] (Cbz-[Phg]-Pro-Arg-CH2F)	
327 nM	CC(C)[C@H](NC(=O)c1ccc(Br)cc1)C(=O)N1CCCC[C@H]1C(=O)N[C@@H](CCCNC(=N)N)C(=O)CF [Compound 46]	selectivity in protease panel [11]: the most selective compound; activity against cathepsin S [6]: highest activity
174 nM	CC(C)[C@H](NC(=O)c1ccc(Br)cc1)C(=O)N1CCOC[C@H]1C(=O)N[C@@H](CCCNC(=N)N)C(=O)CF [Compound 49]	
873 nM	CC(C)[C@H](NC(=O)OCc1ccccc1)C(=O)N1CCC[C@@]1(C)C(=O)N[C@@H](CCCNC(=N)N)C(=O)CF [Compound 43] (Cbz-Val-[αMeP]-Arg-CH2F)	
239 nM	CC(C)[C@H](NC(=O)OCc1ccccc1)C(=O)N1C[C@@H](O)C[C@H]1C(=O)N[C@@H](CCCNC(=N)N)C(=O)CF [Compound 42] (Cbz-Val-[cisHyp]-Arg-CH2F)	
5380 nM	N=C(N)NCCC[C@H](NC(=O)[C@@H]1CCCN1C(=O)C1(NC(=O)OCc2ccccc2)CCCC1)C(=O)CF [Compound 38] (Cbz-[Ac5c]-Pro-Arg-CH2F)	
6000 nM	N=C(N)NCCC[C@H](NC(=O)[C@@H]1CCCN1C(=O)C1(NC(=O)OCc2ccccc2)CCCCC1)C(=O)CF [Compound 37] (Cbz-[Ac6c]-Pro-Arg-CH2F)	
17500 nM	CC(C)[C@H](NC(=O)c1ccc(Br)cc1)C(=O)N1CCC[C@@H]1C(=O)N[C@@H](CCCNC(=N)N)C(=O)CF [Compound 50]	
43 nM	N=C(N)NCCC[C@H](NC(=O)[C@@H]1CCCN1C(=O)[C@@H](NC(=O)c1ccc(Br)cc1)C1CCCCC1)C(=O)CF [Compound 51]	
87 nM	N=C(N)NCCC[C@H](NC(=O)[C@H](CO)NC(=O)[C@@H](NC(=O)c1ccc(Br)cc1)C1CCCCC1)C(=O)CF [Compound 52]	
209 nM	CC(C)[C@H](NC(=O)OCc1ccccc1)C(=O)N1C[C@H](O)C[C@H]1C(=O)N[C@@H](CCCNC(=N)N)C(=O)CF [Compound 41] (Cbz-Val-[Hyp]-Arg-CH2F)	
144 nM	CC(C)[C@H](NC(=O)OCc1ccccc1)C(=O)N1CCCC[C@H]1C(=O)N[C@@H](CCCNC(=N)N)C(=O)CF [Compound 40] (Cbz-Val-[Pip]-Arg-CH2F)	
